Laboratory results from paper PMC6222487 (Molecules : A Journal of Synthetic Chemistry and Natural …, 2018).
Like-named read-outs stand apart in the source and are kept apart here.

Assays:
AChE (from electric eel) = molecular target: T1, AChE (from electric eel) (Electrophorus electricus, UniProt O42275); test: biochemical; assay type: biochemical; details: for IC50: mean ± SEM, NA = No potent inhibitory activity
T1 construct: purchased Merck & Co
Description: (§1) Photometric 96-well microplates made from polystyrene (Thermo Scientific, Waltham, […]. USA) were used for measurement purposes.
(§2) AChE and BuChE inhibitory activities were measured by the spectrophotometric method of Ellman, with slight modification. Briefly, all in vitro assays were performed in 0.1 M NaH2PO4/Na2HPO4 buffer, pH 7.4, using a THERMO Enzyme-labeled Instrument. The enzyme solutions were prepared to obtain 2.0 units/mL in 2.0 mL aliquots. The assay medium (1 mL) consisted of phosphate buffer (pH 7.4), 10 μL of the enzyme, 30 μL of 0.01 M DTNB, and 30 μL of substrate (ATC or BTC) at a concentration of 0.01 M. The test and reference compounds were first dissolved in DMSO (5‰) and fetal bovine serum (1‰), and then diluted in 0.1 M NaH2PO4/Na2HPO4 buffer (pH 7.4) to provide a final concentration range. The inhibitors were added to the assay solution containing enzyme, buffer, and DTNB with pre-incubation for 20 min at 37 °C, prior to the addition of the substrate. The activity was determined by measuring the increase in absorbance at 410 nm at 1 min intervals at 37 °C. The data were calculated according to the method described by Ellman et al. Each concentration was assayed in triplicate. Blanks containing all of the components except AChE were included in the analyses.

[1] = molecular target: T2, BuChE (from equine serum) (Equus caballus, UniProt P81908); test: biochemical; details: mean ± SEM
T2 construct: purchased Merck & Co; host or cells: equine serum
Description: as §1, §2

Aβ (1-42) [2] = molecular target: T3, Aβ (1-42) (Homo sapiens, UniProt P05067); test: biochemical; details: self-induced aggregation, thioflavin-T; Aβ 20 μM, 37 °C, 24 h; NA = No potent inhibitory activity
T3 construct: Aβ (1-42) peptide (Sigma-Aldrich); purchased Sigma-Aldrich
Description: A Thioflavin T-based fluorometric assay was performed in order to investigate the self-induced Aβ (1-42) aggregation. Briefly, compounds to be tested were firstly dissolved in DMSO to obtain a 10 mM solution and then diluted in phosphate buffer (pH 7.4) to provide a final concentration range. […] After incubation, thioflavin-T (5 μM in 50 mM glycine-NaOH buffer, pH 8.0) was added into the above 96-well microplate and the samples were diluted to a final volume of 150 μL. […] Each inhibitor was run in triplicate.

HepG2 cells = assay type: cell-based; details: for Cell viability: 24 h, CCK-8; for Cytotoxicity (in words): HepG2 cells, up to 500 μM
Description: One of the best documented side-effects of the drug discovery and development of AD is cytotoxicity. To probe whether such a type of target compounds involves cytotoxic effects, we respectively treated HepG2 cells and SH-SY5Y cells with several concentrations of the corresponding compound. Cell viability was determined by a CCK-8 assay. […].
HepG2 cells (human hepatocellular liver carcinoma cell line from American Type Culture Collection, ATCC) were cultured in Eagle’s minimum essential medium (EMEM) supplemented with 10% heat-inactivated fetal bovine serum (FBS), and 100 U/mL of penicillin/streptomycin (Gino Biomedical Technology Co. LTD., Hangzhou, China). Cultures were seeded into flasks containing supplemented medium and maintained at 37 °C in a humidified atmosphere of 5% CO2. For assays, cells (1.0 × 10^5 cells/well) were seeded in a 96-well plate in complete medium, the medium was removed after 24 h, and cells were exposed to the increasing concentrations of compounds 8q or 8r (0, 25, 50, 125, 200, 300, 400, and 500 μM) in DMEM with no serum for a further 24 h. Cell survival was measured through a CCK-8 assay. All compounds were dissolved in pure DMSO.

SH-SY5Y cells = assay type: cell-based; details: for Cytotoxicity (in words): SH-SY5Y cells, up to 500 μM; for Cell viability: SH-SY5Y, 24 h, CCK-8
Description: To probe whether such a type of target compounds involves cytotoxic effects, we respectively treated HepG2 cells and SH-SY5Y cells with several concentrations of the corresponding compound. Cell viability was determined by a CCK-8 assay.
SH-SY5Y cells (human neuroblastoma cell line from American Type Culture Collection, ATCC, Manassas, VA, USA) were seeded into 96-well plates at a density of 4 × 10^4 cells/mL in Dulbecco’s modified Eagle’s medium (DMEM) supplemented with 10% FBS and 100 U/mL of penicillin/streptomycin (Gino Biomedical Technology Co. LTD., Hangzhou, China), and incubated in a humidified atmosphere containing 5% CO2 at 37 °C. […] After this incubation, 10 μL/well of CCK-8 (5 mg/mL) was added and incubated at 37 °C for 4 h. The optical density (OD) of each well was measured using an Epoch Microplate Spectrophotometer (BioTek Instruments, Inc., Winooski, VT, USA) with a test wavelength of 450, 630 nm.

Aβ (1-42) [3] = molecular target: T3, Aβ (1-42); test: Aβ (1-42) fibril formation monitored by transmission electron microscopy (TEM); assay type: biochemical; details: Aβ (1-42) 20 µM, compound 50 µM, 37 °C, 24 h
Description: Aβ (1-42) peptide (Sigma-Aldrich) was added into a 96-well microplate and then diluted by phosphate buffer (10 mM, pH 7.4) to provide a concentration of 100 μM solution at 4 °C before use and the sample preparation procedure was the same as that used for the Thioflavin T assay. Aliquots (5 μL) of the samples were placed on a carbon-coated copper/rhodium grid for 2 min at room temperature. Each grid was stained with phosphomolybdic acid solution (3%, 5 μL) for 2 min. After draining off the excess staining solution, the specimen was transferred for imaging by transmission electron microscopy.

AChE = molecular target: T4, AChE (Electrophorus electricus, UniProt O42275); test: Kinetic study of AChE inhibition (Lineweaver-Burk plot); assay type: biochemical; details: substrate 0.1–0.4 mM
T4 construct: purchased Merck & Co
Description: The assay solution (100 μL) was afforded by the addition of 30 μL of DTNB (0.01 M), 10 μL of 2 units/mL AChE, and 30 μL of substrate (ATC) to the phosphate buffer (0.1 M, pH 7.0). Three different concentrations of 8q were added to the assay solution with the AChE and pre-incubated for 20 min at 37 °C, followed by the addition of substrate in different concentrations. Kinetic characterization of the hydrolysis of ATC catalysed by AChE was carried out at 410 nm. A parallel control was made with the assay solution of no inhibitor for each time. The plots were assessed by a weighted least square analysis that assumed the variance of V to be a constant percentage of V for the entire data set.
Figure 2 Determination of the inhibitory type of selected compound 8q on AChE. Merged Lineweaver-Burk reciprocal plots of AChE initial velocity with increasing substrate concentrations (0.1–0.4 mM) in the absence or presence of 8q. Lines were derived from a weighted least-squares analysis of data points.

T3 sequence (P05067 672-713): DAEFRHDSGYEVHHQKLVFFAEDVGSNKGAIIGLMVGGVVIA
T1 sequence (O42275 24-633): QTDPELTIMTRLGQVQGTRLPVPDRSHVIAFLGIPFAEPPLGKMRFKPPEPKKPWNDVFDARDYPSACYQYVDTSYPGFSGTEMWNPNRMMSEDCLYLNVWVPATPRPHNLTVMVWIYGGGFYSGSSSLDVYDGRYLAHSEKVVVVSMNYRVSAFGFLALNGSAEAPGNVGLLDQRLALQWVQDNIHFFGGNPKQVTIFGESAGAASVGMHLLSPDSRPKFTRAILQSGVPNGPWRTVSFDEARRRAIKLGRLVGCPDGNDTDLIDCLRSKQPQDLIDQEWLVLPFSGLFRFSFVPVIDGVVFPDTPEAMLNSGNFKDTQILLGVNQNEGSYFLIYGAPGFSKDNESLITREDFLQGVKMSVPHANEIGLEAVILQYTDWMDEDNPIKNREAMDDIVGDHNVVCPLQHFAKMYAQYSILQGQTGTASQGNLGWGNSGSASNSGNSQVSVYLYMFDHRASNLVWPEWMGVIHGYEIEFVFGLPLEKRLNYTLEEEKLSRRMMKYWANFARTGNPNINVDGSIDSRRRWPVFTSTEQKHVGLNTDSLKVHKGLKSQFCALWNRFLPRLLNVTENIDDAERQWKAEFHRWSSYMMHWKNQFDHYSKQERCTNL
T2 sequence (P81908 whole entry): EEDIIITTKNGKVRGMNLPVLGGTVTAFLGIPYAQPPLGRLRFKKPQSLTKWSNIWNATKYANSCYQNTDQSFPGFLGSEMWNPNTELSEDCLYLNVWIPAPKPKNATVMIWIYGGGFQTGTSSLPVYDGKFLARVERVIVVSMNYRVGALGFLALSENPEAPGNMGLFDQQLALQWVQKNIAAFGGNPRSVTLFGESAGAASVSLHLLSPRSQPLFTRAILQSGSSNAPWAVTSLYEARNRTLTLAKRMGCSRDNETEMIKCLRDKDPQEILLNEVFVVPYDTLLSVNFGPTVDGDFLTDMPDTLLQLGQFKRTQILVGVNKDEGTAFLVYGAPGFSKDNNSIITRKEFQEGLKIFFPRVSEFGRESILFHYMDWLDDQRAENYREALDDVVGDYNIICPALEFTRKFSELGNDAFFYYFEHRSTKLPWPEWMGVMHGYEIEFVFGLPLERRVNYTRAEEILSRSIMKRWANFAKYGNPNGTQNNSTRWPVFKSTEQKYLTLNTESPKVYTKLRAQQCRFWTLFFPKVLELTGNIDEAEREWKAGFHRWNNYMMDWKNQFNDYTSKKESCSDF
T4 sequence (O42275 24-633): as the sequence (O42275 24-633) above

Compound | IC50 (AChE (from electric eel)) | IC50 [1] | IC50 (Aβ (1-42) [2]) | Cell viability (HepG2 cells; HepG2, 25 µM) | Cell viability (HepG2 cells; HepG2, 50 µM) | Cell viability (HepG2 cells; HepG2, 125 µM) | Cell viability (HepG2 cells; HepG2, 200 µM) | Cell viability (HepG2 cells; HepG2, 300 µM) | Cell viability (HepG2 cells; HepG2, 400 µM) | Cell viability (HepG2 cells; HepG2, 500 µM) | Cytotoxicity (in words) (HepG2 cells) | Cytotoxicity (in words) (SH-SY5Y cells) | Cell viability (SH-SY5Y cells; 25 µM) | Cell viability (SH-SY5Y cells; 50 µM) | Cell viability (SH-SY5Y cells; 125 µM) | Cell viability (SH-SY5Y cells; 200 µM) | Cell viability (SH-SY5Y cells; 300 µM) | Cell viability (SH-SY5Y cells; 400 µM) | Cell viability (SH-SY5Y cells; 500 µM) | further results
Cc1nc(C)c(C(=O)OCCCOC(=O)c2ccccn2)nc1C [Compound 8r, 3-[(Pyridine-2-carbonyl)oxy]propyl 3,5,6-trimethylpyrazine-2-carboxylate] | 0.00025 ± 0.00039 µM | 3300 ± 60 µM | 49.14 ± 0.025 µM | 102.83 ± 0.57 ^ns percentage of control | 88.05 ± 1.12 ^ns percentage of control | 81.72 ± 0.87 percentage of control | 71.10 ± 1.06 percentage of control | 71.10 ± 0.80 percentage of control | 68.85 ± 1.11 percentage of control | 68.31 ± 0.53 percentage of control | no obvious cytotoxicity | no obvious cytotoxicity | 94.51 ± 0.45 ^ns percentage of control | 91.46 ± 0.29 ^ns percentage of control | 83.23 ± 0.78 percentage of control | 83.26 ± 2.74 percentage of control | 68.43 ± 0.48 percentage of control | 62.68 ± 0.56 percentage of control | 66.38 ± 1.57 percentage of control | AChE inhibition potency relative to tacrine (AChE (from electric eel); stronger than tacrine): 293 times
Cc1nc(C)c(/C=C/C(=O)OCCCOC(=O)c2nc(C)c(C)nc2C)nc1C [Compound 8q, 3-{[(2E)-3-(3,5,6-Trimethylpyrazin-2-yl)prop-2-enoyl]oxy}propyl 3,5,6-trimethylpyrazine-2-carboxylate] | 0.00139 ± 0.00033 µM | 4040 ± 910 µM | 17.36 ± 0.027 µM | 96.81 ± 3.05 ^ns percentage of control | 91.09 ± 0.99 ^ns percentage of control | 81.19 ± 1.48 percentage of control | 64.81 ± 0.54 percentage of control | 66.75 ± 1.11 percentage of control | 68.89 ± 0.51 percentage of control | 70.10 ± 1.98 percentage of control | no obvious cytotoxicity | no obvious cytotoxicity | 104.30 ± 0.29 ^ns percentage of control | 96.08 ± 0.78 ^ns percentage of control | 80.25 ± 1.53 percentage of control | 72.17 ±0.54 percentage of control | 58.92 ± 0.70 percentage of control | 55.14 ± 0.50 percentage of control | 55.28 ± 0.55 percentage of control | Aβ amorphous deposits seen by TEM (Aβ (1-42) [3]): could obviously alleviate the formation of Aβ amorphous deposits compared with tacrine; Aβ fibril formation seen by TEM (Aβ (1-42) [3]): no obvious Aβ fibril was detected; Inhibitory type on AChE (AChE): mixed-type inhibitor
